In patent US20020119993A1, “Potentiator for neurotrophin effect” (SANKO COMPANY, LIMITED, priority 1999, published 2002):

Key:
[1] = tested on: sensory neurons in the dorsal root ganglion of the rat spinal cord; assay: Survival of sensory neurons of the dorsal root ganglion of the rat spinal cord; type: cell-based; details: for Effect on NGF or NT-3 prolonged survival of sensory neurons in the dorsal root ganglion (in words): with NGF or NT-3
Protocol: Effects on Survival of Ganglion Sensory Neurons in Dorsal Spinal Root Ganglion of the Rat Spinal Cord
The dorsal root ganglion of the spinal cord was isolated from fetuses of the SD rat (Nippon SLC) on 17 days definite pregnancy under a stereoscopic microscope. The ganglion was then treated with 1 mg/ml of collagenase, 2 mg/ml of trypsin and 2 mg/ml of DNase I, followed by dispersion in an MEM medium containing 10% bovine fetal serum. Immediately after the sensory neuron suspension was charged in a 12-well plate (Becton Dickinson Labware) which was coated in advance with laminin and poly-D-lysine, a neurotrophin (NGF or NT-3) and 1-amino-3,8-dichloro-6(5H)-phenanthridinone (Compound No. 166) or 6(5H)-phenanthridinone (Compound A) were added. When half of the medium was exchanged on the next day, cytosine arabinoside was added to the culture medium at a final concentration of 10 μM, in order to cause cell death other than to neurons. A neurotrophin and the test compound were added to the medium at their original concentrations. After culturing for a further two days, the neurons were photographed under a microscope and the number of viable neurons was counted.

PC12 cells = assay: Induction of differentiation (neurite outgrowth) in PC12 cells with neurotrophin; type: cell-based, rat; details: for Ratio of PC12 cells having an outgrowth (%): 72 hours; for Differentiation-induction of PC12 cells by neurotrophin alone (in words): neurotrophin used alone
Excerpt: Induction of Differentiation in […] strain (PC12 cell) derived from Rat Adrenal Medulla
PC12 cells were suspended in a DEM medium containing 10% equine serum and 5% bovine serum and the resulting suspension was charged in a collagen-coated 24-well plate. Twenty-four hours later, the medium was exchanged. A neurotrophin [human recombinant NGF or NT-3 (Austral Biologicals)] and 1-amino-3,8-dichloro-6(5H)-phenanthridinone (Compound No. 166) synthesized in accordance with the process described in Journal of Heterocyclic Chemistry, Z, 597 (1970), were added and cultured for 72 hours. After the medium was discarded, the cells were fixed with 2% glutaraldehyde and were observed under a microscope. The ratio of the cells having a longer outgrowth than the cell body was determined.

[2] = tested on: neurotrophin receptor Trk; assay: Neurotrophin receptor Trk activation (phosphotyrosine) in hippocampal and strial tissue slices of matured rat; type: cell-based; details: for Amount of neurotrophin receptor Trk activated in matured rat cerebral tissues: relative to the amount (100) activated by NGF in the strial tissue
Protocol: Enhancing Action of Neurotrophin Response in Hippocampal and Strial Tissue Slices of Matured Rat
Male SD rats (Nippon SLC) were decapitated under anesthesia and the hippocampus and the corpus striatum were isolated. The tissue was cut into 0.2×0.2 mm slices with a “McIlwain Tissue Chopper” (Mickle Laboratory Engineering Company), and were suspended in a DMEM medium. A neurotrophin (NGF or NT-3) and 1-amino-3,8-dichloro-6(5H)-phenanthridinone were added to the suspension and the mixture was kept at 37° C. for 20 minutes. After washing the tissue with ice-cooled tris buffer physiological saline (TBS), the mixture was stirred vigorously and dissolved in TBS containing 1% Triton-X100, 10 μg/ml of leupeptin, 10 µg/ml of aprotinin, 1 mM of phenylmethylsulfonyl fluoride and 1 mM of sodium vanadate. After centrifugation at 14000 g for 15 minutes, the amount of protein in the supernatant was determined with Protein Assay Kit (Bio-Rad Laboratories, Ltd.). Anti-Trk antibody C-14 (Santa Cruz Biotechnology Inc) which specifically binds to Trk, a neurotrophin receptor, was added to the extract which was adjusted to contain an equal amount of protein and mixed at 4° C. for 16 hours. Thus the Trk receptor in the tissue extract formed an immunocomplex with the antibody. The immunocomplex was precipitated with protein A Sepharose beads (Amersham Pharmacia Biotech). The Trk protein collected was separated from other proteins by sodium dodecyl sulfate-polyacrylamide gel electrophoresis and then transferred to a nitrocellulose membrane by Western blot assay. The membrane was reacted with Antibody 4G10 (Upstate Biotechnology Inc) which recognizes phosphotyrosine and the amount of phosphotyrosine of the Trk protein fixed on the membrane was visualized on a film by an enhanced chemiluminescence kit (Amersham Pharmacia Biotech). The film was photographed by a digital camera and the density of the band was determined by digital image analyzing software (Eastman Kodak Company).

[3] = Table 4, NT-3 100 ng/ml + compound 1 μM
[4] = Table 4, neurotrophin-free, compound 1 μM

**Q.** What does the source list for O=c1[nH]c2ccccc2c2ccccc12 [Compound A, 6(5H)-phenanthridinone, reference compound]?
**A.** Number of viable sensory neurons in the dorsal root ganglion of the rat spinal cord (per mm^2) [1, 3]: 37 ± 3.6 per mm^2; Number of viable sensory neurons in the dorsal root ganglion of the rat spinal cord (per mm^2) [1, 4]: 6 ± 0.8 per mm^2; Effect on NGF or NT-3 prolonged survival of sensory neurons in the dorsal root ganglion (in words) [1]: had no effects

**Q.** How did the “Ratio of PC12 cells having an outgrowth (%)” value (“Ratio … (%)” below) (PC12 cells; NGF 5 ng/ml + compound 3 μM) turn out when Nc1cc(Cl)cc2[nH]c(=O)c3cc(Cl)ccc3c12 [Compound No. 166, 1-amino-3,8-dichloro-6(5H)-phenanthridinone] was run?
**A.** 12 ± 1.3%

**Q.** And the “Ratio … (%)” value (PC12 cells; NGF 5 ng/ml + compound 30 μM)?
**A.** 29 ± 2.6%

**Q.** And the “Ratio … (%)” value (PC12 cells; NGF 20 ng/ml + compound 3 μM)?
**A.** 51 ± 6.5%

**Q.** What about the “Ratio … (%)” value (PC12 cells; NGF 20 ng/ml + compound 30 μM) of the same compound?
**A.** 72 ± 2.0%

**Q.** What about the “Ratio … (%)” value (PC12 cells; NGF 50 ng/ml + compound 3 μM) of the same compound?
**A.** 79 ± 3.0%

**Q.** What about the “Ratio … (%)” value (PC12 cells; NGF 50 ng/ml + compound 30 μM) of the same compound?
**A.** 88 ± 0.7%

**Q.** What about the “Ratio … (%)” value (PC12 cells; NT-3 100 ng/ml + compound 3 μM) of the same compound?
**A.** 62 ± 0.2%

**Q.** And the “Ratio … (%)” value (PC12 cells; NT-3 100 ng/ml + compound 30 μM)?
**A.** 73 ± 3.6%

**Q.** And the “Effect on NGF-induced differentiation and neurite outgrowth in PC12 cells (in words)” value (PC12 cells; applied with NGF)?
**A.** potentiated the NGF-induced differentiation and neurite outgrowth in PC12 cells

**Q.** What about the “Effect on differentiation-induction of PC12 cells (in words)” value (PC12 cells; combined application with NT-3) of the same compound?
**A.** markedly potentiated the differentiation-induction of PC12 cells

**Q.** And the “Amount of neurotrophin receptor Trk activated in matured rat cerebral tissues” value (“Amount” for short) ([2]; Corpus striatum, NT-3 100 ng/ml + compound 30 μM)?
**A.** 68

**Q.** And the “Amount” value ([2]; Hippocampus, NT-3 100 ng/ml + compound 30 μM)?
**A.** 58

**Q.** What about the “Neurotrophin enhancing action in the adult central nervous system (in words)” value ([2]; matured rat cerebral tissue slices, Table 5) of the same compound?
**A.** has a neurotrophin enhancing action in the adult central nervous system

**Q.** And the “Number of viable sensory neurons in the dorsal root ganglion of the rat spinal cord (per mm^2)” value (from here on “Number of viable sensory neurons … (per mm^2)”) ([1]; Table 3, NGF 1 ng/ml + compound 3 μM)?
**A.** 71 ± 1.7 per mm^2

**Q.** And the “Number of viable sensory neurons … (per mm^2)” value ([1]; Table 3, NT-3 100 ng/ml + compound 3 μM)?
**A.** 168 ± 21.1 per mm^2

**Q.** What about the “Number of viable sensory neurons … (per mm^2)” value ([1]; Table 3, neurotrophin-free, compound 3 μM) of the same compound?
**A.** 24 ± 1.6 per mm^2

**Q.** And the “Number of viable sensory neurons … (per mm^2)” value [1, 3]?
**A.** 133 ± 13.1 per mm^2

**Q.** And the “Number of viable sensory neurons … (per mm^2)” value [1, 4]?
**A.** 11 ± 4.0 per mm^2

**Q.** And the “Effect on NGF or NT-3 prolonged survival of sensory neurons in the dorsal root ganglion (in words)” value [1]?
**A.** markedly potentiated the effects of NGF or NT-3

**Q.** Which results are given for “NGF: human recombinant NGF (nerve growth factor), a neurotrophin (Austral Biologicals)”?
**A.** Ratio of PC12 cells having an outgrowth (%) (PC12 cells; neurotrophin alone 5 ng/ml, compound-free): 8 ± 0.9%; Ratio of PC12 cells having an outgrowth (%) (PC12 cells; neurotrophin alone 20 ng/ml, compound-free): 27 ± 2.8%; Ratio of PC12 cells having an outgrowth (%) (PC12 cells; neurotrophin alone 50 ng/ml, compound-free): 57 ± 3.6%; Differentiation-induction of PC12 cells by neurotrophin alone (in words) (PC12 cells): induced differentiation of PC12 cells; Number of viable sensory neurons in the dorsal root ganglion of the rat spinal cord (per mm^2) ([1]; Table 3, neurotrophin alone 1 ng/ml, compound-free): 44 ± 5.5 per mm^2

**Q.** With “NT-3: neurotrophin-3, a neurotrophin (Austral Biologicals)” as the compound, how does the “Ratio … (%)” value (PC12 cells; neurotrophin alone 100 ng/ml, compound-free) read?
**A.** 2 ± 0.6%

**Q.** What about the “Differentiation-induction of PC12 cells by neurotrophin alone (in words)” value (PC12 cells) of the same compound?
**A.** did not cause any sufficient differentiation-induction by itself

**Q.** And the “Amount” value ([2]; Corpus striatum, NT-3 100 ng/ml alone)?
**A.** 12

**Q.** What about the “Amount” value ([2]; Hippocampus, NT-3 100 ng/ml alone) of the same compound?
**A.** 27

**Q.** And the “Number of viable sensory neurons … (per mm^2)” value ([1]; Table 3, neurotrophin alone 100 ng/ml, compound-free)?
**A.** 19 ± 5.0 per mm^2

**Q.** And the “Number of viable sensory neurons … (per mm^2)” value ([1]; Table 4, neurotrophin alone 100 ng/ml, compound-free)?
**A.** 33 ± 4.9 per mm^2
